Assay results as given in ChEMBL document CHEMBL4602617, “Discovery and optimization of heteroaryl piperazines as potent and selective PI3Kδ inhibitors” (Bioorg Med Chem Lett, 2020).

Columns and labels:
[1] = molecular target: Serine/threonine-protein kinase B-raf (Homo sapiens, UniProt P15056); test: Inhibition of recombinant full length human GST-tagged BRAF expressed in baculovirus expression system using tyrosine-1 peptide as substrate incubated for 60 mins in presence of ATP by Z'-LYTE assay
[2] = molecular target: Acetylcholine receptor subunit alpha (Homo sapiens) (UniProt P02708); test: Displacement of [125I]-alpha-Bungarotoxin from full length nAChR alpha1 receptor in human RD cell membranes at 10 uM measured after 120 mins by radiometric scintillation analysis relative to control
[3] = molecular target: Sodium channel protein type 5 subunit alpha (Homo sapiens, UniProt Q14524); test: Inhibition of Nav1.5 (unknown origin)
[4] = molecular target: RAF proto-oncogene serine/threonine-protein kinase (Homo sapiens, UniProt P04049, Y340D/Y341D); test: Inhibition of recombinant human GST-tagged RAF1 Y340D Y341D mutant catalytic domain expressed in baculovirus expression system using serine/threonine-3 peptide as substrate incubated for 60 mins in presence of ATP by Z'-LYTE assay
[5] = molecular target: T1, Phosphatidylinositol 4,5-bisphosphate 3-kinase catalytic subunit delta isoform (Homo sapiens, UniProt O00329); test: Inhibition of PI3K delta in human whole blood assessed as inhibition of anti-IgE-stimulated CysLt release in basophils preincubated for 30 mins followed by anti-IgE stimulation and measured after 20 mins; assay type: tissue-based
T1 sequence (O00329 whole entry): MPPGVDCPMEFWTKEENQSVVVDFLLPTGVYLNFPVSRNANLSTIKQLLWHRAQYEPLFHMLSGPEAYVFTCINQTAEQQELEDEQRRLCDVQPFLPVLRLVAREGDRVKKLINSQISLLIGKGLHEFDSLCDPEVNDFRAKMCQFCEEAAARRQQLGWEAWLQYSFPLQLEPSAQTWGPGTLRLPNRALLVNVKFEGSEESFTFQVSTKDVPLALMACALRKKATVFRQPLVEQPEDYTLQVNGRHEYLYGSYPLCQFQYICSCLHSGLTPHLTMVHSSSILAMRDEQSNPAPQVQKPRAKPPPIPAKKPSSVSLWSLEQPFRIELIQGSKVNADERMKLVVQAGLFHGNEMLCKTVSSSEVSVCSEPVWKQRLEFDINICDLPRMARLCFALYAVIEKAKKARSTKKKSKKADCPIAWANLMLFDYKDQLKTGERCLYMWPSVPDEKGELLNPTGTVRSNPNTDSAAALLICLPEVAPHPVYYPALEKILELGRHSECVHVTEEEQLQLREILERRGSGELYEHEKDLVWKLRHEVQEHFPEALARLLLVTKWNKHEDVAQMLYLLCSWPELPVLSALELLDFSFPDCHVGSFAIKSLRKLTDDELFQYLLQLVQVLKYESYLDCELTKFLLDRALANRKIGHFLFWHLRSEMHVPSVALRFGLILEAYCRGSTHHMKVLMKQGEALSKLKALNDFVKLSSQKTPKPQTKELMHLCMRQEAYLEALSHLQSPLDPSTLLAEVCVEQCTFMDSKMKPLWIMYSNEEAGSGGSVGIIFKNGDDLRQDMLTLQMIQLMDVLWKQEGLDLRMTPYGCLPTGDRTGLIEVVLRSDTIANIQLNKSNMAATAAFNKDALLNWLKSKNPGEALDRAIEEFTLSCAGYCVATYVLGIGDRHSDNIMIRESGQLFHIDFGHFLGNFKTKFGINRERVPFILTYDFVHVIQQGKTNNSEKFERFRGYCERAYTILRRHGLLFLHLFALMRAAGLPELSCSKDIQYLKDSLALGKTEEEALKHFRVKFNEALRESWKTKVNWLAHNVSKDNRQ

[6] = molecular target: Mitogen-activated protein kinase 1 (Homo sapiens, UniProt P28482); test: Inhibition of recombinant full length human GST-tagged ERK2 expressed in Escherichia coli expression system using serine/threonine-3 peptide as substrate incubated for 60 mins in presence of ATP by Z'-LYTE assay
[7] = molecular target: Mitogen-activated protein kinase 10 (Homo sapiens, UniProt P53779); test: Inhibition of recombinant full length N-terminal GST-tagged human JNK3 expressed in baculovirus expression system using Ser/Thr-04 peptide as substrate after 1 hr in presence of ATP by Z'LYTE assay
[8] = molecular target: 5-hydroxytryptamine receptor 1A (Homo sapiens) (UniProt P08908); test: Displacement of [3H]-8-OH-DPAT from full length human recombinant 5HT1A receptor expressed in CHOK-1 cells at 10 uM measured after 60 mins by radiometric scintillation analysis relative to control; assay type: cell-based
[9] = molecular target: Epidermal growth factor receptor (Homo sapiens, UniProt P00533, L858R); test: Inhibition of human recombinant GST-tagged EGFR L858R mutant expressed in baculovirus expression system using tyrosine 4 peptide as substrate after 60 mins in presence of ATP FRET based Z'-LYTE assay
[10] = molecular target: Platelet-derived growth factor receptor alpha (Homo sapiens, UniProt P16234, V561D); test: Inhibition of recombinant human GST-tagged PDGFRalpha V561D mutant cytoplasmic domain expressed in baculovirus expression system using tyrosine-4 peptide as substrate incubated for 60 mins in presence of ATP by Z'-LYTE assay
[11] = molecular target: CDK2/Cyclin A2 (Homo sapiens, UniProt P24941); test: Inhibition of recombinant full length human His-tagged CDK2/Cyclin A expressed in baculovirus expression system using serine/threonine-12 peptide as substrate incubated for 60 mins in presence of ATP by Z'-LYTE assay
[12] = molecular target: G protein-coupled receptor kinase 6 (Homo sapiens, UniProt P43250); test: Inhibition of recombinant full length human GST-tagged GRK6 expressed in baculovirus expression system using serine/threonine-16 peptide as substrate incubated for 60 mins in presence of ATP by Z'-LYTE assay
[13] = molecular target: PI3-kinase p110-delta/p85-alpha (Homo sapiens, UniProt O00329); test: Inhibition of recombinant human full-length N-terminal GST-tagged p110delta/untagged full-length p85alpha expressed in baculovirus infected Sf21 cells using PIP2 as substrate preincubated for 15 mins followed by substrate addition and measured after 1 hr by HTRF assay
[14] = molecular target: Cytochrome P450 2D6 (Homo sapiens, UniProt P10635); test: Inhibition of CYP2D6 (unknown origin)
[15] = molecular target: Tyrosine-protein kinase ABL1 (Homo sapiens, UniProt P00519, T315I); test: Inhibition of recombinant full length human His-tagged ABL1 T315I mutant cytoplasmic domain expressed in baculovirus expression system using tyrosine-2 peptide as substrate incubated for 60 mins in presence of ATP by Z'-LYTE assay
[16] = species on record: Rattus norvegicus; test: Displacement of [3H]CGP-54626 from GABAB in Wistar rat whole brain at 10 uM incubated for 20 mins by radiometric scintillation analysis relative to control; assay type: tissue-based
[17] = molecular target: Misshapen-like kinase 1 (Homo sapiens, UniProt Q8N4C8); test: Inhibition of recombinant human MINK1 catalytic domain expressed in baculovirus expression system using Ser/Thr 07 peptide as substrate after 1 hr in presence of ATP by Z'LYTE assay

Chain of Sodium channel protein type 5 subunit alpha (Q14524 whole entry, the tested form may be a part): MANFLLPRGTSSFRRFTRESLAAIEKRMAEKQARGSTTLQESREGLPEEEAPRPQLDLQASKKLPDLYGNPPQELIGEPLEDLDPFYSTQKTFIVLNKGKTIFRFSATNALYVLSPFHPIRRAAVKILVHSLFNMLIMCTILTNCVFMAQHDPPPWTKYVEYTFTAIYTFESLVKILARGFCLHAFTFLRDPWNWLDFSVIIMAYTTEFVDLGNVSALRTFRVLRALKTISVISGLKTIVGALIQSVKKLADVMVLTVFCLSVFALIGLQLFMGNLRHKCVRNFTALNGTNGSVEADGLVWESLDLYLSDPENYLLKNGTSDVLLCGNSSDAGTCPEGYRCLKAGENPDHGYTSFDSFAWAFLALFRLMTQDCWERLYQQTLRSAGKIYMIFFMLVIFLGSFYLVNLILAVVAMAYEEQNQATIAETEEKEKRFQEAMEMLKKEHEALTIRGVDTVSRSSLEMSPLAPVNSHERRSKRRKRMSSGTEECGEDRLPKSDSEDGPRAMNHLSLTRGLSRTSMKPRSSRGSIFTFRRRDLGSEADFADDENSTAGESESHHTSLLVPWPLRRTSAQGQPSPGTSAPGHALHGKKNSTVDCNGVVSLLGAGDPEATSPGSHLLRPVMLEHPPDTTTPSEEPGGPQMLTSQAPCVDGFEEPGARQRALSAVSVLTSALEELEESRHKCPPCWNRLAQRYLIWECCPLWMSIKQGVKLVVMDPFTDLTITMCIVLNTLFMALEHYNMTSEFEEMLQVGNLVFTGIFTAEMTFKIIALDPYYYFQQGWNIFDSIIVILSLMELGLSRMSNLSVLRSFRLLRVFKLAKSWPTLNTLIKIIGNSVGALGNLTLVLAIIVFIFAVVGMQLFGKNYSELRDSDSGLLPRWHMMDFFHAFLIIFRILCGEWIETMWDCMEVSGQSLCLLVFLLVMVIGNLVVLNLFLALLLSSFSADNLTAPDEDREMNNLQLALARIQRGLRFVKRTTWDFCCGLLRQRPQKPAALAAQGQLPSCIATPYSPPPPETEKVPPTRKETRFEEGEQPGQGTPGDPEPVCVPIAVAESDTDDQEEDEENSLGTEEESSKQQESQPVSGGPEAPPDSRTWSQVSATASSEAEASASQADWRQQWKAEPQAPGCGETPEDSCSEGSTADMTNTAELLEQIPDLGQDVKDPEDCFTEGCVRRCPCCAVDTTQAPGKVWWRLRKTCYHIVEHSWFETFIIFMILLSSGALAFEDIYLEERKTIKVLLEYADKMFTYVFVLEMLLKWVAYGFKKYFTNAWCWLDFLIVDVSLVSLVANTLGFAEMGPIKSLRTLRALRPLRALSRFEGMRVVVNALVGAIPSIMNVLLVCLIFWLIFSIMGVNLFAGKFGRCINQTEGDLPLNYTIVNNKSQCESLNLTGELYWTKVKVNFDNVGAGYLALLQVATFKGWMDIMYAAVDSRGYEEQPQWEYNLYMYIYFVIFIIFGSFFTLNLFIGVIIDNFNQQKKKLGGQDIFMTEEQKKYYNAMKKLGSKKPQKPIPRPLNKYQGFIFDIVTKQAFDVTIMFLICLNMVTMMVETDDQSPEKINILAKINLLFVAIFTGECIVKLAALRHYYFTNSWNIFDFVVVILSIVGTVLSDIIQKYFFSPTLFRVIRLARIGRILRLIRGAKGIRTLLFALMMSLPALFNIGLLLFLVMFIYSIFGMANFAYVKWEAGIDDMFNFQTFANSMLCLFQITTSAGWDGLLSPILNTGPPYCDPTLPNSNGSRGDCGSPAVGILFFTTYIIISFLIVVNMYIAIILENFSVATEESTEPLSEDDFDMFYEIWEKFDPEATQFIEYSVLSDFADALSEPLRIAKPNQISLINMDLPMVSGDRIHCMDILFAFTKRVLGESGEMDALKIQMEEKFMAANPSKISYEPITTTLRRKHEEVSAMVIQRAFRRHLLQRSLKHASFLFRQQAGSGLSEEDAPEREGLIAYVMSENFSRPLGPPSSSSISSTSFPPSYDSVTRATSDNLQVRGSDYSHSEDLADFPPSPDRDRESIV
Chain of RAF proto-oncogene serine/threonine-protein kinase (P04049 whole entry Y340D/Y341D, the tested form may be a part, canonical isoform): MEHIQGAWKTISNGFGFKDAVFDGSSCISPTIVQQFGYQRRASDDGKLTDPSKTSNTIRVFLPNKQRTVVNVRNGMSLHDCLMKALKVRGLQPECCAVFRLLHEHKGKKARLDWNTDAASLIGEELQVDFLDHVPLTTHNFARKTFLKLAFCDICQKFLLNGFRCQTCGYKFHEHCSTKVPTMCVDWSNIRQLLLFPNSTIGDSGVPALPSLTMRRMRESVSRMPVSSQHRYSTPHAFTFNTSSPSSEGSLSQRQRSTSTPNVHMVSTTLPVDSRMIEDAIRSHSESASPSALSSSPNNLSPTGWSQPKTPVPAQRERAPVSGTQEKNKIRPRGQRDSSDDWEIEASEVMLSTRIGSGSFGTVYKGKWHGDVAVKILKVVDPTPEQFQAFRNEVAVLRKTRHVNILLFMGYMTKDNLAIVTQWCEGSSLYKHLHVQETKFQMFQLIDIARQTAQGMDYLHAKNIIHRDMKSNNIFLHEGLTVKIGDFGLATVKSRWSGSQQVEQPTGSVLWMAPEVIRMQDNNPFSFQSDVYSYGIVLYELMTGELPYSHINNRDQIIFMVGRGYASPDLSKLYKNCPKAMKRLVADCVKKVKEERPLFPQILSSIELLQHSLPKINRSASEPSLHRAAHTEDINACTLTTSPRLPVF
Chain of Platelet-derived growth factor receptor alpha (P16234 24-1089 V561D limits assumed): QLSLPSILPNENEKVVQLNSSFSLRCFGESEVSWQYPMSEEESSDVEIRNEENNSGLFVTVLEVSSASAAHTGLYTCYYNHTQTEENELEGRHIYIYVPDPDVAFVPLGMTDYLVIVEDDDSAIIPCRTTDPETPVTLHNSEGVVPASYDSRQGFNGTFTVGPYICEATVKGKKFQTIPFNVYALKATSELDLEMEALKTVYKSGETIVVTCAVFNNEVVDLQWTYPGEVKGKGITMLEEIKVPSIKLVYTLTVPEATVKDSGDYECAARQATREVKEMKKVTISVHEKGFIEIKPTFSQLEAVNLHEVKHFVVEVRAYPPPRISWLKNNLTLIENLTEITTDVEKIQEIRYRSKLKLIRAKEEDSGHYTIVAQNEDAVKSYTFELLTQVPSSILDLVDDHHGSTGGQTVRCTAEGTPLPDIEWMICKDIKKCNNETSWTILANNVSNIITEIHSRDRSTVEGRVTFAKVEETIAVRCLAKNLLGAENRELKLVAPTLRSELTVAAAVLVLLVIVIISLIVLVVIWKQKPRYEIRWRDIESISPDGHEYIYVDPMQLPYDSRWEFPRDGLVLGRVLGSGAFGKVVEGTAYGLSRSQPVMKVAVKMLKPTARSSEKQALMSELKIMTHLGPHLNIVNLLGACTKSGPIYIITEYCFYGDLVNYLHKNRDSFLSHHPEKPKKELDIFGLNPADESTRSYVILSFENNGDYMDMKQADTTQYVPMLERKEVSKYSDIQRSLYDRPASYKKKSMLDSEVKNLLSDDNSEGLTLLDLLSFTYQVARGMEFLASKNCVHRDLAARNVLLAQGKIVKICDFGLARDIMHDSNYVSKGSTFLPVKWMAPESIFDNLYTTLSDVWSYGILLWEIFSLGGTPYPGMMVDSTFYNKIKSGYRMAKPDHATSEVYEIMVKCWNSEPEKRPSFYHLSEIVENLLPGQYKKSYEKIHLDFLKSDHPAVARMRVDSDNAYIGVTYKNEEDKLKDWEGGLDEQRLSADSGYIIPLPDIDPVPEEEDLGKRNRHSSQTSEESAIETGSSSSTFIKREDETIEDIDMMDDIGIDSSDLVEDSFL
Chain of Cytochrome P450 2D6 (P10635 whole entry, the tested form may be a part): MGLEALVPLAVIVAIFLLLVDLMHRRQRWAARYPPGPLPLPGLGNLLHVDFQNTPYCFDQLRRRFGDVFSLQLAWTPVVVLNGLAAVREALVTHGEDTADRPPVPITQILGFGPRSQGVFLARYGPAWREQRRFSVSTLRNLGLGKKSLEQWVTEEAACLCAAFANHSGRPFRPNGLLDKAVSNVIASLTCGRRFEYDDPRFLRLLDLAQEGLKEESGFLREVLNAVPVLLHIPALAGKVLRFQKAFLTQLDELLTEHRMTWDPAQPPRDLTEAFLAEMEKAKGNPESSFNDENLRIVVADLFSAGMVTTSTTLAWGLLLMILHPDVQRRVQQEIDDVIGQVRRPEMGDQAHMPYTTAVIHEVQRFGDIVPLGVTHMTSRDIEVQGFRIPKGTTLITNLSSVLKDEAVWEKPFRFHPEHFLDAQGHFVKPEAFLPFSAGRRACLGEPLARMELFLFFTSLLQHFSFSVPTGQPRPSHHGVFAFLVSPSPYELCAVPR
Chain of G protein-coupled receptor kinase 6 (P43250 whole entry): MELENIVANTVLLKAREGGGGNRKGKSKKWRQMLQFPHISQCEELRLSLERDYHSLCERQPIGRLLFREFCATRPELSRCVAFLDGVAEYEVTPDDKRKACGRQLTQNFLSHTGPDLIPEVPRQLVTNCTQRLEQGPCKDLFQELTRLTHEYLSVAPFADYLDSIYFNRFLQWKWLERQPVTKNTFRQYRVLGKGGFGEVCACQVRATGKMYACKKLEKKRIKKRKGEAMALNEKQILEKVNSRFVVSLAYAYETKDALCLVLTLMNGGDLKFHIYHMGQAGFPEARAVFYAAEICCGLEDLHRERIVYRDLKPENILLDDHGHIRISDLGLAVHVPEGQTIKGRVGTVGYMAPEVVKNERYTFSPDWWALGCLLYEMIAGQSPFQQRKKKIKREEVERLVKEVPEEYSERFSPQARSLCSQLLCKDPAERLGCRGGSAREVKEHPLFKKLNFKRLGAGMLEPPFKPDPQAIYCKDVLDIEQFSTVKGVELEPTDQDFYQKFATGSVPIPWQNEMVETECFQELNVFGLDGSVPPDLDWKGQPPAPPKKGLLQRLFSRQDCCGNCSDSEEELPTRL

C[C@@H]1C[C@H]1C(=O)N1CCN(c2cnc(C#N)c(-c3cnn(C)c3)n2)C[C@H]1C
IC50 [1]: > 100 µM | inhibition [2]: 5% | IC50 [3]: > 30 µM | IC50 [4]: > 100 µM | IC50 [5]: 0.065 µM | IC50 [6]: > 100 µM | IC50 [7]: 5.37 µM | inhibition [8]: 9% | IC50 [9]: > 100 µM | IC50 [10]: > 100 µM | IC50 [11]: > 100 µM | IC50 [12]: > 100 µM | IC50 [13]: 0.009 µM | IC50 [14]: > 50 µM | IC50 [15]: > 100 µM | inhibition [16]: -2% | IC50 [17]: 25.6 µM
